Consider one molecule from patent publication EP0073715A1, “Brominated compounds for use in opacifying products” (Société dite: GUERBET S.A., priority 1981, dated 1983).

The series can be described thus: Protein binding (Brodersen technique). As to conditions: weaker interaction means better tolerance, read-out: Liaison protéique (converted). The source says: Plus cette interaction est faible et meilleure est la tolérance.

The structures appear in SMILES notation.

`O=C(CCCCC(=O)Nc1c(I)cc(I)c(C(=O)O)c1I)Nc1c(I)cc(I)c(C(=O)O)c1I` [Adipiodone de méthylglucamine]: the Kd is 78.1 µM.
